# Measured values as given in paper PMC10518717, “High-Throughput Screening and Proteomic Characterization of Compounds Targeting Myeloid-Derived Suppressor Cells” (Molecular & Cellular Proteomics : MCP, 2023).
# Assays:
# NUP-MDSC = assay: Global proteome expression profiling of compound-treated NUP-MDSC (TMT LC-MS/MS); format: cell-based, mouse; settings: 72 h; for log2 FC ENT_300/DMSO: 300 nM
# Procedure: After treatments, medium was removed, cells were washed twice with PBS, and the cell pellets were further subjected to proteomic sample preparation.
# The cell pellet was reconstituted in 2% SDS in 50 mM Tris–HCl pH 7.5 and lysed by heating to 95 °C for 10 min. One microliter of 100% TFA was added to each sample to hydrolyze DNA, and the pH was subsequently adjusted to 8.5 with 3 M Tris solution. Disulfide bonds were reduced with 10 mM DTT for 45 min at 37 °C, followed by alkylation of cysteines with 55 mM CAA for 30 min at room temperature. Prior to tryptic digestion, the detergent was removed from lysates by SP3 cleanup on an Agilent BRAVO system (Agilent Technologies), following the protocol first described by Hughes et al. ([34]). Briefly, lysate containing 200 μg of protein was mixed with SP3 beads, and proteins were precipitated onto a 50:50 mixture of Sera-Mag Speed Bead types A and B (Thermo Fisher Scientific) in 58% acetonitrile. Beads were washed three times with 80% ethanol in water and once with acetonitrile. Tryptic digest was performed in 100 μl of digestion buffer (2 mM CaCl2 in 25 mM Hepes, pH 8.5) with a 1:50 enzyme-to-protein ratio. Bead-precipitated proteins were digested at 37 °C overnight. On the next day, the supernatant of each sample was transferred to a new well and vacuum dried.
# Dried peptides were reconstituted in water and labeled with the respective TMT10plex-labeling reagent as described previously ([35]) with a protein to tandem mass tag (TMT) reagent ratio of 1:2. Labeled samples were pooled, vacuum dried, and reconstituted in 0.1% formic acid (FA) prior to desalting on SepPAC50 columns (waters corp.). Peptides were fractionated using a Dionex Ultra 3000 HPLC system with a Waters XBridge BEH130 C18 3.5 um 2.1 × 250 mm column as described previously ([36]). Ninety-six fractions were collected and pooled to 48. For the full proteome analysis, one fifth of each fraction was transferred to a new 96-well plate and both plates were vacuum dried. For the phosphopeptide analysis, dried peptides were reconstituted in 55 μl 0.1% TFA in 30% ACN, pooled from 48 to 12 fractions, and mixed with 70 μl priming buffer (0.1% TFA, 100% ACN). Phosphopeptides were enriched from each of the 12 fractions using Fe(III)-IMAC-NTA cartridges on the AssayMAP BRAVO (Agilent Technologies) platform as described previously ([36]). Phosphopeptides were eluted with 60 μl 1% ammonia, vacuum dried, and stored at −20 °C prior to LC-MS/MS analysis.
# The Fusion Lumos was operated in data-dependent acquisition and positive ionization mode. Samples were measured employing a MS3 method. In brief, full scan MS1 spectra were recorded in the orbitrap (OT) from 360 to 1560 m/z at 60,000 resolution using an automatic gain control (AGC) target value of 4e5 charges and a maximum injection time (maxIT) of 50 ms. Iontrap-MS2 spectra for peptide identification were acquired using higher energy collision dissociation (HCD) fragmentation with 32% normalized collision energy (NCE), an isolation window of 0.6 m/z, and an AGC target value of 1.2e4 charges. To obtain quantitative information on TMT reporter ions, each peptide precursor was fragmented again as for MS2 analysis followed by synchronous selection of the up to eight most intense peptide fragments in the iontrap ([37]) and further fragmentation via HCD using a NCE of 55%. The MS3 scan was recorded in the OT at 50,000 resolution (scan range 100–1000 m/z, isolation window of 1.2 m/z, AGC of 1e5 charges, maxIT of 86 ms). The cycle time was 1.2 s, and the dynamic exclusion lasted for 50 s.
# Peptide, protein, and phosphorylation site identification and quantification were performed with MaxQuant software (v. 1.6.3.3, https://www.maxquant.org/) with standard settings for reporter ion MS3 unless described otherwise ([39]). Isotope impurities of the TMT lot were specified to allow MaxQuant the automated correction of TMT intensities. […]
# NUP-MDSC cell lysate [1] = molecular target: T1, NUP-MDSC cell lysate (Mus musculus, UniProt G5E8Z3); assay: Chemoproteomic competition pulldown assay (iCor/iEnt affinity matrix), proteome-wide; format: binding; settings: protein 2310050C09Rik (G5E8Z3)
# T1 construct: endogenous in cells; host or cells: mouse NUP-MDSC (lysate)
# Text: (§1) Targets of the inhibitors were annotated manually.
# NUP-MDSC cell lysate [2] = molecular target: T2, NUP-MDSC cell lysate (Mus musculus, UniProt Q8WUR0); assay: as above; format: binding; settings: protein 1600014C10Rik (Protein C19orf12 homolog)
# T2 construct: endogenous in cells; host or cells: mouse NUP-MDSC (lysate)
# T2 sequence (Q8WUR0 1-141): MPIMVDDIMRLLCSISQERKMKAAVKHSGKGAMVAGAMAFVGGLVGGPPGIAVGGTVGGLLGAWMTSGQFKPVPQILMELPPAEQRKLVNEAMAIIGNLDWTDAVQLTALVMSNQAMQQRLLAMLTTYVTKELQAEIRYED
# Text: as §1
# NUP-MDSC cell lysate [3] = assay: as above; format: binding, mouse; settings: NUP-MDSC lysate; iCor and iEnt
# Text: as §1
# [4] = system: HDAC1/2 and the CoREST complex; settings: NUP-MDSC lysate; competition with iCor pulldown
# Procedure: In vitro–differentiated NUP-MDSC were harvested, washed twice with PBS, and cell pellets were stored at −80 °C. For lysis, the pellets were slowly thawed at 20 °C and mixed with lysis buffer (0.8% Igepal, 50 mM Tris–HCl pH 7.5, 5% glycerol, 1.5 mM MgCl2, 150 mM NaCl, 1 mM Na3VO4, 25 mM NaF, 1 mM DTT, and supplemented with protease inhibitors (SigmaFast, Sigma) and phosphatase inhibitors (prepared in-house according to phosphatase inhibitor cocktail 1, 2, and 3 from Sigma-Aldrich)). Before usage, the cell lysates were cleared from debris by ultracentrifugation (52,000×g for 20 min at 4 °C); protein concentration was determined by Bradford assay. […]
# Peptides were analyzed via LC-MS/MS on a Dionex Ultimate3000 nano HPLC coupled to an Orbitrap Fusion Lumos mass spectrometer (Thermo Fisher Scientific). […]
# The mass spectrometer was operated in data-dependent mode, automatically switching between MS1 and MS2 spectra. […] Up to 12 peptide precursors were isolated (isolation width of 1.2 Th, maxIT of 75 ms, AGC value of 2e5), fragmented by HCD using 30% NCE, and analyzed in the OT at a resolution of 15,000. […]
# Protein identification and quantification was performed using MaxQuant (v 1.6.1.0) by searching the LC-MS/MS data against all canonical protein sequences as annotated in the Swissprot reference database (v03.12.15, 20,193 entries, downloaded 22.03.2016) using the embedded search engine Andromeda. […]
# T1 sequence (G5E8Z3 1-280): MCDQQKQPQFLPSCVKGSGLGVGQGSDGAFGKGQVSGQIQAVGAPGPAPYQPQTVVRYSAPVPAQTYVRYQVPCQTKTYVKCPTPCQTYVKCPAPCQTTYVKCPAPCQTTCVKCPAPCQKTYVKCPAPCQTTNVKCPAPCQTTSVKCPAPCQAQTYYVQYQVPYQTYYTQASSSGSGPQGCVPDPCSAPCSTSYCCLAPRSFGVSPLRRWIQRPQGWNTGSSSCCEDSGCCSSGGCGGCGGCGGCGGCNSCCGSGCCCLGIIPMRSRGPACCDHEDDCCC
smiles,measurement,setting,value
Nc1ccccc1NC(=O)c1ccc(CNC(=O)OCc2cccnc2)cc1 [entinostat],"protein expression of Il1a, Il1b, and Il1rn",NUP-MDSC; 30 and 300 nM,dose-dependently upregulated
same,"protein level of Cxcr3, Ccl9, and Ccr5","NUP-MDSC; 30 and 300 nM, dose-dependent manner",increased
same,log2 FC ENT_300/DMSO,NUP-MDSC; protein Cask,-0.505
same,log2 FC ENT_300/DMSO,NUP-MDSC; protein Hsf1,-0.1449
same,log2 FC ENT_300/DMSO,NUP-MDSC; protein Inpp5j,0.4672
same,log2 FC ENT_300/DMSO,NUP-MDSC; protein Magohb;Magoh,0.03399
same,Intensity 3nM,NUP-MDSC cell lysate [1]; Entinostat 3nM,4673000
same,LFQ intensity 3nM,NUP-MDSC cell lysate [1]; Entinostat 3nM,0
same,Intensity 10nM,NUP-MDSC cell lysate [1]; Entinostat 10nM,39076000
same,LFQ intensity 10nM,NUP-MDSC cell lysate [1]; Entinostat 10nM,48940000
same,Intensity 30nM,NUP-MDSC cell lysate [1]; Entinostat 30nM,0
same,LFQ intensity 30nM,NUP-MDSC cell lysate [1]; Entinostat 30nM,0
same,Intensity 100nM,NUP-MDSC cell lysate [1]; Entinostat 100nM,0
same,LFQ intensity 100nM,NUP-MDSC cell lysate [1]; Entinostat 100nM,0
same,Intensity 300nM,NUP-MDSC cell lysate [1]; Entinostat 300nM,63615000
same,LFQ intensity 300nM,NUP-MDSC cell lysate [1]; Entinostat 300nM,92239000
same,Intensity 1000nM,NUP-MDSC cell lysate [1]; Entinostat 1000nM,0
same,LFQ intensity 1000nM,NUP-MDSC cell lysate [1]; Entinostat 1000nM,0
same,Intensity 3000nM,NUP-MDSC cell lysate [1]; Entinostat 3000nM,17259000
same,LFQ intensity 3000nM,NUP-MDSC cell lysate [1]; Entinostat 3000nM,18337000
same,Intensity 30000nM,NUP-MDSC cell lysate [1]; Entinostat 30000nM,37204000
same,LFQ intensity 30000nM,NUP-MDSC cell lysate [1]; Entinostat 30000nM,38240000
same,Intensity 3nM,NUP-MDSC cell lysate [2]; Entinostat 3nM,20883000
same,LFQ intensity 3nM,NUP-MDSC cell lysate [2]; Entinostat 3nM,42321000
same,Intensity 10nM,NUP-MDSC cell lysate [2]; Entinostat 10nM,34795000
same,LFQ intensity 10nM,NUP-MDSC cell lysate [2]; Entinostat 10nM,40587000
same,Intensity 30nM,NUP-MDSC cell lysate [2]; Entinostat 30nM,27408000
same,LFQ intensity 30nM,NUP-MDSC cell lysate [2]; Entinostat 30nM,39634000
same,Intensity 100nM,NUP-MDSC cell lysate [2]; Entinostat 100nM,29285000
same,LFQ intensity 100nM,NUP-MDSC cell lysate [2]; Entinostat 100nM,35458000
same,Intensity 300nM,NUP-MDSC cell lysate [2]; Entinostat 300nM,23203000
same,LFQ intensity 300nM,NUP-MDSC cell lysate [2]; Entinostat 300nM,36056000
same,Intensity 1000nM,NUP-MDSC cell lysate [2]; Entinostat 1000nM,28303000
same,LFQ intensity 1000nM,NUP-MDSC cell lysate [2]; Entinostat 1000nM,37293000
same,Intensity 3000nM,NUP-MDSC cell lysate [2]; Entinostat 3000nM,35943000
same,LFQ intensity 3000nM,NUP-MDSC cell lysate [2]; Entinostat 3000nM,42228000
same,Intensity 30000nM,NUP-MDSC cell lysate [2]; Entinostat 30000nM,27116000
same,LFQ intensity 30000nM,NUP-MDSC cell lysate [2]; Entinostat 30000nM,26320000
same,additional targets identified,NUP-MDSC cell lysate [3],No additional targets
same,target affinity,[4],high affinities
